Results: PubChem BioAssay AID1648 (Sanford-Burnham Center for Chemical Genomics, 2009)
Activity calls are given as the source filed them. The rule behind the calls is not given here.

Biological target: Serine/threonine-protein kinase mTOR (Homo sapiens) (UniProt P42345)
Experiment: binders of mTOR FRB domain, biophysical, NMR (AID 1648)
Details: NMR binding to FRB domain, chemical shift

Chain of Serine/threonine-protein kinase mTOR (Homo sapiens) (P42345 2015-2114): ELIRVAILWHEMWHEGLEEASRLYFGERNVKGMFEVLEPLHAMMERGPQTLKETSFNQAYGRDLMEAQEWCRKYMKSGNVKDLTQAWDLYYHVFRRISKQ

| Structure (SMILES) | Kd |
| --- | --- |
| O=C(Nc1ccccc1)C(=O)NC1CC1 | > 4 mM (inactive) |
| CC(=O)c1ccc(-n2ccnc2)cc1 | > 4 mM (inactive) |
| Cn1c(=O)c2[nH]cnc2n(C)c1=O | > 4 mM (inactive) |
| Cc1cc(C(=O)NC(C)c2ccncc2)no1 (stereo unspecified) | > 4 mM (inactive) |
| S=C1NC(=S)NC(c2ccc3c(c2)OCO3)N1 | > 4 mM (inactive) |
| CC(C)c1nnc(N)s1 | > 4 mM (inactive) |
| O=C(Nc1nc2c(s1)CCCC2)c1cccnc1 | > 4 mM (inactive) |
| NC1=NC(=O)/C(=C/c2ccccc2[N+](=O)[O-])S1 | > 4 mM (inactive) |
| Cc1cc(C)nc(/N=C(/N)N2CCC(C(N)=O)CC2)n1 | > 4 mM (inactive) |
| CNC[C@@H](O)c1ccc(O)c(O)c1 | > 4 mM (inactive) |
| O=C(O)CNC(=O)c1ccccc1 | > 4 mM (inactive) |
| O=C(O)CCCNC(=O)c1ccccc1C(=O)O | > 4 mM (inactive) |
| COc1cccc(O)c1O | > 4 mM (inactive) |
| COc1cc(O)cc(/C=C/c2ccccc2)c1 | > 4 mM (inactive) |
| CCOC(=O)c1[nH]c(C)cc1C | > 4 mM (inactive) |
| O=c1cnnc(NCc2ccc(F)cc2)[nH]1 | > 4 mM (inactive) |
| O=C(C1CCCCC1)N1CCN(c2ccccc2F)CC1 | > 4 mM (inactive) |
| CCOc1ccc(C(=O)c2ccc(OC)c(O)c2O)cc1 | > 4 mM (inactive) |
| COc1ccc(-c2cc(=O)c3ccccc3o2)cc1OC | > 4 mM (inactive) |
| CN1CCN(S(=O)(=O)c2ccc(=O)[nH]c2)CC1 | > 4 mM (inactive) |
| Cc1cccc(C)c1NC(=O)CN1CCOCC1 | > 4 mM (inactive) |
| CC(=O)O[C@@H]1CC2C(C)(C)CCC(=O)[C@]2(C)C2CC[C@@]3(C)[C@H](c4ccoc4)OC(=O)C4OC43[C@@]21C (stereo partly specified) | > 4 mM (inactive) |
| N/C(=N/O)C1COc2ccccc2O1 (stereo unspecified) | > 4 mM (inactive) |
| O=C(O)C1CSC(c2cccnc2)N1 (stereo unspecified) | > 4 mM (inactive) |

| Structure (SMILES) | Kd |
| --- | --- |
| COc1cccc2c1CCC1=CC(=O)CC[C@@]12C | > 4 mM (inactive) |
| C=C1C([C@]2(C)C(CC(=O)OC)[C@@](C)(COC(C)=O)OC(=O)C[C@@H]2OC(C)=O)[C@@H](OC=O)[C@H](OC(=O)C(O)C(C)CC)[C@@]2(C)[C@H](c3ccoc3)CC(=O)C12O (stereo partly specified) | > 4 mM (inactive) |
| CN1CCC(N(C)Cc2cccnc2)CC1 | > 4 mM (inactive) |
| CCC(=O)n1nc(-c2ccco2)nc1N | > 4 mM (inactive) |
| Cc1cc(C)nc(NC(N)=NCc2ccco2)n1 | > 4 mM (inactive) |
| COc1ccc2c(=O)c(OC)c(-c3ccccc3)oc2c1 | > 4 mM (inactive) |
| Oc1ccc(C(=S)N2CCCCC2)cc1Cl | > 4 mM (inactive) |
| Cc1csc2nc(N)nn12 | > 4 mM (inactive) |
| C=C1CCC(=O)C(C)CCC2C1CC2(C)C (stereo unspecified) | > 4 mM (inactive) |
| CC(C)c1c(O)ccc2c1CCC1C(C)(C)CCC[C@]21C (stereo partly specified) | > 4 mM (inactive) |
| O=C(Nc1ncccn1)c1cccc(F)c1 | > 4 mM (inactive) |
| O=c1cc(-c2ccc(O)cc2)oc2cc(O[C@@H]3O[C@H](CO)[C@@H](O)[C@H](O)[C@H]3O[C@@H]3OC[C@](O)(CO)[C@H]3O)cc(O)c12 | > 4 mM (inactive) |
| OC1CNCc2cc3c(cc21)OCCO3 (stereo unspecified) | > 4 mM (inactive) |
| O=C1CSC(=O)N1c1cccc(O)c1 | > 4 mM (inactive) |
| COc1ccc(N2CC(=O)NC2=O)cc1 | > 4 mM (inactive) |
| O=C(Nc1ccon1)c1sc2cc(F)ccc2c1Cl | > 4 mM (inactive) |
| CCCCCCCCCCCCCCC(C(=O)O)C(O)(CC(=O)OC)C(=O)O (stereo unspecified) | > 4 mM (inactive) |
| Nc1ccc(CN2CCOCC2)cc1 | > 4 mM (inactive) |
| CCCCCCCCCCCC[C@H](C(=O)O)[C@@H](C)C(=O)O | > 4 mM (inactive) |
| O=c1n(-c2cccc(Cl)c2)c(=O)n2n1CCC2 | > 4 mM (inactive) |
| Nc1c(Nc2ccccc2)c2ccccc2oc1=O | > 4 mM (inactive) |
| CCOC(=O)c1ccc(F)cc1F | > 4 mM (inactive) |
| COc1ccc2c(=O)c(CC(=O)O)coc2c1 | > 4 mM (inactive) |
| Cc1cc(C(=O)NC2=NCCS2)cs1 | > 4 mM (inactive) |

| Structure (SMILES) | Kd |
| --- | --- |
| CC1=NCCc2c1[nH]c1cc(O)ccc21 | > 4 mM (inactive) |
| Nc1cccc(NC(=O)c2cccs2)c1 | > 4 mM (inactive) |
| CC1(C)CC(=O)c2cnn(-c3nc4ccccc4[nH]3)c2C1 | > 4 mM (inactive) |
| CC[C@@]1(O)C(=O)OCc2c1cc1n(c2=O)Cc2cc3ccccc3nc2-1 | > 4 mM (inactive) |
| O=c1c(-c2ccco2)[n+]([O-])c2ccccc2n1O | > 4 mM (inactive) |
| O=c1[nH]nc(Cc2ccccn2)c2ccccc12 | > 4 mM (inactive) |
| Cn1nc(C(=O)NCc2cccnc2)c2ccccc2c1=O | > 4 mM (inactive) |
| Cc1ccc(NC(=O)C2CCCNC2=O)nc1 (stereo unspecified) | > 4 mM (inactive) |
| Cc1c(C)c2c(c(C)c1O)CCC(C)(CCCC(C)CCCC(C)CCCC(C)C)O2 (stereo unspecified) | > 4 mM (inactive) |
| O=C1CN2C(=N1)N(Cc1ccccc1)c1ccccc12 | > 4 mM (inactive) |
| O=C(Nc1ccon1)c1cccc(C(F)(F)F)c1 | > 4 mM (inactive) |
| COc1c2occc2cc2ccc(=O)oc12 | > 4 mM (inactive) |
| CC(=O)c1cccc(NS(=O)(=O)N(C)C)c1 | > 4 mM (inactive) |
| NC(c1ccccc1)c1ccccn1 (stereo unspecified) | > 4 mM (inactive) |
| CC(=O)Nc1ccc(-c2cn3ccsc3n2)cc1 | > 4 mM (inactive) |
| Nc1ccc(N2CCOCC2)cc1 | > 4 mM (inactive) |
| Cc1cc(=O)[nH]c(N)n1 | > 4 mM (inactive) |
| NC(CC(=O)O)c1ccccc1 (stereo unspecified) | > 4 mM (inactive) |
| COc1c2c(cc3cc[n+](C)cc13)OCO2 | > 4 mM (inactive) |
| O=C(CC1NC(=O)NC1=O)Nc1ccccc1 (stereo unspecified) | > 4 mM (inactive) |
| O=C1C2C3CCC(O3)C2C(=O)N1c1cccc(F)c1 (stereo unspecified) | > 4 mM (inactive) |
| C=CCSc1[nH]c(=O)cc(C)c1C(N)=O | > 4 mM (inactive) |
| O=c1cc(-c2ccc(O)cc2)[nH]c(=S)[nH]1 | > 4 mM (inactive) |
| CC12CC[C@H](CC1=O)C2(C)C | > 4 mM (inactive) |

| Structure (SMILES) | Kd |
| --- | --- |
| Nc1c(C(=O)O)sc2ncccc12 | > 4 mM (inactive) |
| OC1CCC(C(F)(F)F)CC1 (stereo unspecified) | > 4 mM (inactive) |
| COc1ccc(/C=C2/SC(N)=NC2=O)c(OC)c1 | > 4 mM (inactive) |
| N#CCCn1c(=O)oc2ccccc21 | > 4 mM (inactive) |
| O=C1C2C3C=CC(C3)C2C(=O)N1c1nccs1 (stereo unspecified) | > 4 mM (inactive) |
| COC(=O)C1CSCC1=O (stereo unspecified) | > 4 mM (inactive) |
| O=C(O)C1CC(=O)N(Cc2cccs2)C1 (stereo unspecified) | > 4 mM (inactive) |
| O=C1NNC(=O)C2C3c4ccccc4C(c4ccccc43)C12 (stereo unspecified) | > 4 mM (inactive) |
| CC(=O)OCC[C@H](C)CCC=C(C)C | > 4 mM (inactive) |
| C#CCCCCCCCCCCCC(=O)CC(O)COC(C)=O (stereo unspecified) | > 4 mM (inactive) |
| Cc1sc2nc(-c3ccco3)oc(=O)c2c1C | > 4 mM (inactive) |
| Cc1nnc(C)n1/N=C/c1cccs1 | > 4 mM (inactive) |
| O=C(NN1C(=O)C2C3C=CC(C3)C2C1=O)C1CC=CCC1 (stereo unspecified) | > 4 mM (inactive) |
| O=C(O)CCCCCCCC(=O)O | > 4 mM (inactive) |
| COC(=O)[C@@H]1OC(=O)C2OC23[C@@]1(C)CCC1[C@]2(C)C(C[C@@H](O)[C@]13C)C(C)(C)[C@H](OC(C)=O)C[C@@H]2OC(C)=O (stereo partly specified) | > 4 mM (inactive) |
| COc1ccc(S(=O)(=O)Nc2ccccn2)c(C)c1C | > 4 mM (inactive) |
| COc1ccc(-c2ccc(SCC(N)=O)nn2)cc1 | > 4 mM (inactive) |
| Cn1cnc2c(cnn2-c2ccccc2)c1=O | > 4 mM (inactive) |
| Cc1cccc(N2C(=O)CC(=O)NC2=O)c1 | > 4 mM (inactive) |
| CP(C)(=O)CCC(=O)O | > 4 mM (inactive) |
| COc1cc2c(cc1OC)[C@@H]1C(=O)c3ccc4c(c3O[C@@H]1CO2)CC(C(C)C)O4 (stereo partly specified) | > 4 mM (inactive) |
| O=S1(=O)CCC(Nc2ccccc2)C1 (stereo unspecified) | > 4 mM (inactive) |
| O=C(CS(=O)(=O)c1ccccc1)Nc1nccs1 | > 4 mM (inactive) |
| COc1cc2nc[nH]c(=O)c2cc1OC | > 4 mM (inactive) |

| Structure (SMILES) | Kd |
| --- | --- |
| CC(=O)NCS(=O)(=O)c1ccc(C)cc1 | > 4 mM (inactive) |
| NC1=NC(=O)C(Cc2cccc([N+](=O)[O-])c2)S1 (stereo unspecified) | > 4 mM (inactive) |
| O=C1Nc2ccccc2C1(O)Cc1ccncc1 (stereo unspecified) | > 4 mM (inactive) |
| O=S(=O)(Cc1ccc(Cl)cc1)N1CCCC1 | > 4 mM (inactive) |
| CSc1nnc2c(n1)OC(C)=Nc1ccccc1-2 | > 4 mM (inactive) |
| C=C1C([C@]2(C)C(CC(=O)OC)[C@@](C)(COC(C)=O)OC(=O)C[C@@H]2OC(C)=O)[C@@H](OC=O)[C@H](OC(=O)C(OC(C)=O)C(C)CC)[C@@]2(C)[C@H](c3ccoc3)CC(=O)C12O (stereo partly specified) | > 4 mM (inactive) |
| COc1ccc(-c2oc3ccccc3c(=O)c2O)cc1OC | > 4 mM (inactive) |
| CC(=O)NCC1(c2ccccc2)CCOCC1 | > 4 mM (inactive) |
| CC(CCC(=O)O)[C@H]1CCC2C3CC[C@@H]4CCCC[C@]4(C)C3CC[C@@]21C (stereo partly specified) | > 4 mM (inactive) |
| CCOC(=O)N1CCCC1c1cccnc1 (stereo unspecified) | > 4 mM (inactive) |
| Cc1ccc(/C=C2/C(=O)N=C(N)N2C)s1 | > 4 mM (inactive) |
| Cc1ccc(C(=O)N2CCC(C(=O)O)CC2)cc1 | > 4 mM (inactive) |
| CC(C)=CCOc1c2occc2cc2ccc(=O)oc12 | > 4 mM (inactive) |
| NC(N)=Nc1nc2ccccc2o1 | > 4 mM (inactive) |
| C[C@H]1O[C@@H](O[C@H]2[C@@H](O)C[C@H](O[C@H]3[C@@H](O)C[C@H](O[C@H]4CC[C@]5(C)C6CC[C@]7(C)[C@@H](C8=CC(=O)OC8)CC[C@]7(O)C6CC[C@@H]5C4)O[C@@H]3C)O[C@@H]2C)C[C@H](O)[C@@H]1O (stereo partly specified) | > 4 mM (inactive) |
| Cc1ccc(C(O)c2nccn2C)o1 (stereo unspecified) | > 4 mM (inactive) |
| CN(C)c1ccc(NC(=O)CC(C(=O)O)N(C)C)cc1 (stereo unspecified) | > 4 mM (inactive) |
| O=C1c2ccncc2C(=O)N1CO | > 4 mM (inactive) |
| Nc1ccc(OC(F)(F)F)cc1 | > 4 mM (inactive) |
| Cc1cc(=O)n2ccc(CN3CCOCC3)c(O)c2n1 | > 4 mM (inactive) |
